Measurements as given in ChEMBL document CHEMBL1201862, “PubChem BioAssay data set” (2004).
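Cultured in 96-well plates, cells were exposed to test compound for 48 hours across five concentrations. Here, GI50 denotes the concentration required for 50% inhibition of growth.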 Calls of active or inactive are those of the source. Cut-off read from the data, not from the text of the source: active = GI50 up to about 1.1 µM and inactive = higher. Square brackets hold non-standard residues; d marks the D form. Peptide text beside a SMILES is read from it. Phe(4-Cl) = N[CH](Cc1ccc(Cl)cc1)C(=O)O; 2Nal = N[CH](Cc1ccc2ccccc2c1)C(=O)O; 3Pal = N[CH](Cc1cccnc1)C(=O)O

What was measured:
Assay in all cases: NCI-60 cell line screen, 48 h
HCC 2998 = system: HCC 2998
OVCAR-4 = system: OVCAR-4
UO-31 = system: UO-31
T47D = system: T47D
HOP-62 = system: HOP-62
UACC-62 = system: UACC-62
MDA-N = system: MDA-N
MOLT-4 = system: MOLT-4
COLO 205 = system: COLO 205
SF-268 = system: SF-268
HT-29 = system: HT-29
NCI-H23 = system: NCI-H23
SK-OV-3 = system: SK-OV-3
SR = system: SR
SK-MEL-2 = system: SK-MEL-2
MDA-MB-231 = system: MDA-MB-231
Malme-3M = system: Malme-3M
SF-539 = system: SF-539
LOX IMVI = system: LOX IMVI

Measured: GI50

COC(=O)C(CC12CC3CC(CC(C3)C1)C2)NC(=O)C(N)CC(=O)O (centres undefined)
inactive: HCC 2998 > 100 µM | OVCAR-4 > 100 µM | UO-31 > 100 µM | T47D > 100 µM | HOP-62 > 100 µM | UACC-62 > 100 µM | MDA-N > 100 µM | MOLT-4 > 100 µM | COLO 205 > 100 µM | SF-268 > 100 µM | HT-29 > 100 µM | NCI-H23 > 100 µM | SK-OV-3 > 100 µM | SR > 100 µM | SK-MEL-2 > 100 µM

CC(=O)C1=C(C)N(c2ccc(C)cc2)C2(O)C=CC(O)=C3C(=O)c4ccccc4C(=O)C312 (centres undefined)
inactive: HCC 2998 16.8 µM | OVCAR-4 12.6 µM | UO-31 14.1 µM | T47D 9.95 µM | HOP-62 26.9 µM | UACC-62 10.5 µM | MOLT-4 3.05 µM | COLO 205 5.05 µM | SF-268 15.9 µM | HT-29 3.89 µM | MDA-MB-231 20.7 µM | NCI-H23 21.1 µM | Malme-3M 1.91 µM | SF-539 23.8 µM | SK-OV-3 > 100 µM | LOX IMVI 6.95 µM | SR 36.9 µM | SK-MEL-2 7.36 µM

Cc1cc(O)c(C(C)C)cc1CN1CCCCC1
inactive: HCC 2998 > 100 µM | OVCAR-4 > 100 µM | UO-31 > 100 µM | T47D > 100 µM | HOP-62 > 100 µM | UACC-62 > 100 µM | MDA-N > 100 µM | MOLT-4 > 100 µM | COLO 205 > 100 µM | SF-268 > 100 µM | HT-29 > 100 µM | MDA-MB-231 > 100 µM | NCI-H23 > 100 µM | Malme-3M > 100 µM | SF-539 > 100 µM | SK-OV-3 > 100 µM | LOX IMVI > 100 µM

COC1=CC2C(c3cc4ccccc4n3S(=O)(=O)c3ccccc3)CC1CN2C(=O)OCc1ccccc1 (centres undefined)
inactive: HCC 2998 36.5 µM | OVCAR-4 26.1 µM | UO-31 27.2 µM | HOP-62 40.4 µM | UACC-62 29.8 µM | MDA-N 34.5 µM | COLO 205 16.4 µM | HT-29 23.6 µM | MDA-MB-231 20 µM | NCI-H23 29.7 µM | Malme-3M 19.8 µM | SK-OV-3 28.8 µM | LOX IMVI 24.8 µM | SK-MEL-2 23.6 µM

Cc1nc(C(N)=S)sc1C(/C=C/c1ccc(Cl)c(Cl)c1)=N/NC(C)(C)C
inactive: HCC 2998 > 100 µM | OVCAR-4 88.5 µM | UO-31 33.2 µM | UACC-62 > 100 µM | MDA-N > 100 µM | MOLT-4 22.3 µM | COLO 205 > 100 µM | SF-268 > 100 µM | HT-29 > 100 µM | MDA-MB-231 > 100 µM | NCI-H23 > 100 µM | SF-539 > 100 µM | SK-OV-3 > 100 µM | LOX IMVI > 100 µM | SK-MEL-2 > 100 µM

CC(=O)CC1(C)OC(N)=C(C#N)C1(C#N)C#N (centres undefined)
inactive: HCC 2998 > 100 µM | UO-31 > 100 µM | T47D > 100 µM | HOP-62 55.1 µM | UACC-62 > 100 µM | MDA-N > 100 µM | COLO 205 45.9 µM | SF-268 > 100 µM | HT-29 88.9 µM | MDA-MB-231 > 100 µM | NCI-H23 > 100 µM | Malme-3M 80 µM | SF-539 86.1 µM | SK-OV-3 > 100 µM | LOX IMVI 81.1 µM | SK-MEL-2 > 100 µM

O=C1CC(Cl)c2c(Cl)sc(Cl)c21 (centres undefined)
inactive: HCC 2998 2.36 µM | OVCAR-4 4.57 µM | UO-31 1.99 µM | T47D 2.92 µM | HOP-62 6 µM | UACC-62 2.16 µM | MDA-N 2.32 µM | MOLT-4 1.23 µM | COLO 205 2.02 µM | SF-268 1.79 µM | HT-29 2.23 µM | NCI-H23 2.88 µM | Malme-3M 1.42 µM | SF-539 2.63 µM | SK-OV-3 18.6 µM | LOX IMVI 1.66 µM | SR 1.41 µM

O=[N+]([O-])/C(C(Cl)=C(Cl)Cl)=C(\N1CCOCC1)n1nnc2ccccc21
inactive: OVCAR-4 27.2 µM | UO-31 17.8 µM | T47D 16.9 µM | HOP-62 18.8 µM | UACC-62 23.3 µM | MDA-N 19.6 µM | MOLT-4 33.5 µM | COLO 205 18.8 µM | SF-268 18.3 µM | MDA-MB-231 17.5 µM | NCI-H23 16.7 µM | Malme-3M 18.4 µM | SF-539 15.4 µM | SK-OV-3 27.2 µM | SK-MEL-2 22.2 µM

CC(=O)Oc1cc(C(F)(F)F)ccc1C(=O)OC1(C)OC(=O)c2ccc(C(F)(F)F)cc2O1 (centres undefined)
inactive: HCC 2998 > 100 µM | OVCAR-4 > 100 µM | UO-31 > 100 µM | T47D > 100 µM | HOP-62 > 100 µM | UACC-62 > 100 µM | MDA-N > 100 µM | MOLT-4 > 100 µM | COLO 205 > 100 µM | SF-268 > 100 µM | HT-29 > 100 µM | MDA-MB-231 > 100 µM | NCI-H23 > 100 µM | Malme-3M > 100 µM | SF-539 > 100 µM | SK-OV-3 > 100 µM | LOX IMVI > 100 µM

CC(=O)NC(Cc1ccc2ccccc2c1)C(=O)NC(Cc1ccc(Cl)cc1)C(=O)NC(Cc1cccnc1)C(=O)NC(CO)C(=O)NC(Cc1ccc(O)cc1)C(=O)NC(CCCN=C(N)N)C(=O)NC(CC(C)C)C(=O)NC(CCCN=C(N)N)C(=O)N1CCCC1C(=O)NC(C)C(N)=O (centres undefined) (Ac-[2Nal][Phe(4-Cl)][3Pal]SYRLRPA-NH2; configuration not given here)
inactive: HCC 2998 > 100 µM | OVCAR-4 > 100 µM | UO-31 > 100 µM | HOP-62 > 100 µM | UACC-62 77.4 µM | MDA-N > 100 µM | MOLT-4 > 100 µM | COLO 205 > 100 µM | HT-29 > 100 µM | MDA-MB-231 > 100 µM | NCI-H23 > 100 µM | Malme-3M 28.8 µM | SF-539 > 100 µM | SR > 100 µM | SK-MEL-2 > 100 µM

COC(=O)C1SC(SC)=NC12c1ccccc1Nc1ccccc12 (centres undefined)
inactive: HCC 2998 24.5 µM | OVCAR-4 32.7 µM | UO-31 69.2 µM | T47D 32.2 µM | HOP-62 41.8 µM | UACC-62 16.6 µM | MDA-N 26.8 µM | MOLT-4 22.1 µM | COLO 205 20.5 µM | SF-268 37.4 µM | HT-29 30.8 µM | NCI-H23 19.8 µM | Malme-3M 22 µM | SF-539 17.5 µM | SK-OV-3 45.8 µM | LOX IMVI 18 µM | SR 17.5 µM | SK-MEL-2 21.5 µM

c1ccc2sc(C3(N4CCCCCC4)CCCCC3)cc2c1
inactive: HCC 2998 15.5 µM | OVCAR-4 28.4 µM | UO-31 20.3 µM | HOP-62 26.2 µM | UACC-62 20.4 µM | MDA-N 28.9 µM | MOLT-4 15.6 µM | COLO 205 16 µM | SF-268 25.8 µM | HT-29 15.3 µM | MDA-MB-231 27.8 µM | NCI-H23 20 µM | SF-539 23.4 µM | SK-OV-3 29 µM | LOX IMVI 20.6 µM

N#Cc1nc(C2SCCCS2)oc1N
inactive: OVCAR-4 > 100 µM | HOP-62 > 100 µM | UACC-62 > 100 µM | MDA-N > 100 µM | MOLT-4 > 100 µM | SF-268 > 100 µM | HT-29 > 100 µM | MDA-MB-231 > 100 µM | SK-OV-3 > 100 µM | LOX IMVI > 100 µM | SR > 100 µM | SK-MEL-2 > 100 µM

NCC#CCNCCCN1CC1
inactive: HCC 2998 > 100 µM | OVCAR-4 > 100 µM | T47D > 100 µM | HOP-62 > 100 µM | UACC-62 > 100 µM | MDA-N > 100 µM | COLO 205 > 100 µM | SF-268 > 100 µM | HT-29 > 100 µM | NCI-H23 > 100 µM | Malme-3M > 100 µM | SF-539 > 100 µM | SK-OV-3 > 100 µM | LOX IMVI > 100 µM | SR > 100 µM | SK-MEL-2 > 100 µM

CC1(C)OCC(C(O)C2OC(C)(C)OC2C=O)O1 (centres undefined)
inactive: OVCAR-4 > 100 µM | UO-31 > 100 µM | HOP-62 > 100 µM | UACC-62 > 100 µM | MDA-N > 100 µM | MOLT-4 > 100 µM | COLO 205 > 100 µM | SF-268 > 100 µM | HT-29 > 100 µM | MDA-MB-231 > 100 µM | NCI-H23 > 100 µM | Malme-3M > 100 µM | SK-OV-3 > 100 µM | LOX IMVI > 100 µM | SR > 100 µM | SK-MEL-2 > 100 µM

CNC(=O)CNC(=O)CCC(=O)OC
inactive: OVCAR-4 > 100 µM | UO-31 > 100 µM | T47D > 100 µM | HOP-62 > 100 µM | UACC-62 > 100 µM | MDA-N > 100 µM | MOLT-4 > 100 µM | COLO 205 > 100 µM | SF-268 > 100 µM | HT-29 > 100 µM | MDA-MB-231 > 100 µM | NCI-H23 > 100 µM | SF-539 > 100 µM | SK-OV-3 > 100 µM | SK-MEL-2 > 100 µM

O=C(Nc1ccc(Cl)cc1)c1cc(S(=O)(=O)Nc2n[nH]c(=O)n2-c2ccccc2)c(S)cc1Cl
inactive: HCC 2998 > 100 µM | OVCAR-4 > 100 µM | UO-31 > 100 µM | T47D > 100 µM | HOP-62 > 100 µM | UACC-62 > 100 µM | MOLT-4 6.22 µM | COLO 205 > 100 µM | SF-268 > 100 µM | HT-29 > 100 µM | MDA-MB-231 > 100 µM | NCI-H23 > 100 µM | Malme-3M > 100 µM | SF-539 > 100 µM | SK-OV-3 > 100 µM | LOX IMVI > 100 µM | SR > 100 µM | SK-MEL-2 > 100 µM
